Results: US12077485B2, “Lipid nanoparticle compositions for delivering circular polynucleotides” (Orna Therapeutics, Inc., priority 2021, dated 2024)

Experiments:
[1] = tested on: splenic immune cells (T cells, myeloid cells, B cells, NK cells); assay: mOX40L expression in splenic immune cells, flow cytometry; type: in vivo, C57BL/6 female mice; conditions: 1 mg/kg intravenously, 24 hours, IL:P 5.7, 50:10:38.5:1.5; compared to Lipid 15 of Table 10f
Experimental: The ionizable lipid: helper lipid: cholesterol: PEG-lipid molar ratio of these LNPs was 50:10:38.5:1.5. Dialysis of the LNPs were performed using PBS. C57BL/6 female mice (6-8 weeks, n=4) were dosed at either LNP comprising Lipid 1 of Table 10e or the Lipid 15 of Table 10f at 1 mg/kg intravenously. At 24 hours, the spleen from the mice were collected for flow cytometry analysis. mOX40L transfection of Lipid 1 of Table 10e and Lipid 15 of Table 10f were compared in T cells, myeloid cells, B cells, and NK cells.

[2] = tested on: splenic T cells; assay: mOX40L expression in splenic T cells, flow cytometry; type: in vivo, C57BL/6 female mice; conditions: 1 mg/kg intravenously, 24 hours, IL:P 5.7
Experimental: The ionizable lipid: helper lipid: cholesterol: PEG-lipid molar ratio of these LNPs was 50:10:38.5:1.5. C57BL/6 female mice (6-8 weeks, n=4) were dosed at 1 mg/kg intravenously. At 24 hours, the spleen from the mice were collected for flow cytometry analysis, tested for weight loss and measured for serum alanine aminotransferase (ALT) after blood collection. mOX40L expression was measured in splenic T cells.

For CCCCCCCCCCCCC(O)CN(CCCO)CCCCCCCC(=O)OC(CCCCCCCC)CCCCCCCC (centres unmarked) [Lipid 1 of Table 10e, heptadecan-9-yl 8-((3-hydroxypropyl)(2-hydroxytetradecyl)amino)octanoate], the “mOX40L transfection in splenic immune cells” value [1] was “comparable or higher levels of mOX40L transfection” and the “expression of mOX40L in splenic T cells” value [2] was “resulted in expression of mOX40L in splenic T cells”.
